One assay addresses T1, EC-EpoR-Fc (Homo sapiens, UniProt P19235).
T1 construct: (EC-EpoR, amino acids 1 to 225); made in house; host or cells: Pichia pastoris X-33 (pPICZαA, secreted)
T1 sequence (P19235 25-249): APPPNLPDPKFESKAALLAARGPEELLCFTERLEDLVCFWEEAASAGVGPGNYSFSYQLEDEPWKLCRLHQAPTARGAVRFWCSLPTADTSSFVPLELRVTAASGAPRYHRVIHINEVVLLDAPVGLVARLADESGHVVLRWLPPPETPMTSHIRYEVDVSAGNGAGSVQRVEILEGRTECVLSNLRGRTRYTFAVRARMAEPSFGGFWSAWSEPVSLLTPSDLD
Briefly: Competition ELISA with synthetic trMP peptide, phage binding to immobilised EC-EpoR-Fc. The protocol:
Without a crystal structure of the MP/Ec-EpoR-Fc complex, it is however unclear whether the contribution of an MP residue in these parts to EC-EpoR-Fc binding is related to direct peptide-receptor interaction or to intra-molecular interactions. In an attempt to delineate the MP peptide binding site on EC-EpoR-Fe, a competition ELISA using a synthetic truncated version of the MP peptide (trMP, from A3 to Y28) was performed. […] A similar result (i.e. binding outside the biological ligand-binding site) has been reported for the symmetrical molecule SB-247464 which recognises the homodimeric G-CSF receptor (Tian et al., 1998). Large and complex proteins with modular architecture indeed appear to have multiple ligand-binding sites located at the slits between symmetrical modules.
For competition ELISA with synthetic trMP peptide (see below), serial dilutions of MP peptide (starting from 1 mM) were mixed with 2.5×10^8 phage in 2% MPBS, then added to pre-blocked EC-EpoR-Fc-coated wells for 2 hours. Bound phage were detected as described above. […] Bound EC-EpoR-Fc was detected with protein A-horseradish peroxidase conjugate ( 1/4000 dilution, Sigma), and o-phenylene diamine dihydrochloride (OPD) as substrate. After 10-15 minutes, the reactions were stopped with 50 μl of 4 N H2SO4 and absorbances were measured at 492 nm.
On the technique in general: An ELISA detects its analyte on a solid surface through an enzyme-linked reagent.

The target of the next assay is T2, ferritin (Equus caballus, UniProt P02791+Q8MIP0).
T2 construct: ferritin (from horse spleen, Sigma cat. F-4503); purchased Sigma F-4503; host or cells: horse spleen
Briefly: Apparent dissociation constant of n-unit HKPRKE MBP fusions for ferritin. Further details: species or system horse. Particulars: n-unit of HKPRKE motif fused to maltose-binding protein. From the text: In contrast, the results from the Fd-1×6-mer, Fd-2×6-mer, and Fd-4×6-mer peptide libraries indicate that concatenation is crucial to reach the selection threshold for binding to ferritin. […] By competition ELISA, we observed that these peptide constructs had affinities to ferritin very similar to that of peptide F6. […] In a randomised polypeptide, the likelihood that down-mutations will offset up-mutations increases with its length, so that ultimately most longer polypeptides will have average sequence profiles. […]
For competition ELISA with ferritin-binding peptide, serial dilutions of MBP-fusions (see below) were incubated with 10 nM biotinylated ferritin in 2% MPBS overnight at 4° C., then added to pre-blocked MBP-(HKPRKE)8-coated wells for 30 min. Bound biotinylated ferritin was detected by incubation with streptavidin horseradish peroxidase conjugate (Sigma) and OPD.
Apparent dissociation constants were calculated using the BIAevaluation program and the 1:1 Langmuir dissociation model from sensorgrams (BIAcore) collected upon immobilisation of 200-400 resonance units (RU) of biotinylated ligands (sEPOR-Fc or MBP-fusion) on SA-sensor chips followed by injection of various analytes (sEPOR-Fc, MBP-fusion, 0.1 to 2 μM concentration range) diluted in HBS-EP buffer (BIAcore), at a flow rate of 80 μl/min at 25° C.

pIC50, pKd: −log10 of the molar value. Positions of bridges follow the written chain, without caps; N, C: chain ends. Residues, ends and D or L forms follow the SMILES beside them.

T2 sequence (P02791 2-175 limits assumed): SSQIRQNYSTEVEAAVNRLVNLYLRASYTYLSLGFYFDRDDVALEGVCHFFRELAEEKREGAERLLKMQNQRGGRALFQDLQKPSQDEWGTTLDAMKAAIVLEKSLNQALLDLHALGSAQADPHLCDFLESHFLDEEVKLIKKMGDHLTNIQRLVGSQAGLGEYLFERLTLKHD
T2 sequence (Q8MIP0 whole entry): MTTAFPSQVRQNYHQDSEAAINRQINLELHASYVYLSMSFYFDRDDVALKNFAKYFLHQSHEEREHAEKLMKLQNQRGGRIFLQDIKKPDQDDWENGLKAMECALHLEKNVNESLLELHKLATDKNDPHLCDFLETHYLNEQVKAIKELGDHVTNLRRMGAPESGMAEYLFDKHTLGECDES

For orientation: pIC50 means −log10 of the IC50, conventionally taken in molar units. Take `CC(C)C[C@H](NC(=O)[C@@H](NC(=O)[C@H](C)NC(=O)CNC(=O)[C@H](Cc1c[nH]cn1)NC(=O)[C@@H]1CSSC[C@H](NC(=O)[C@H](C)N)C(=O)N[C@@H](Cc2c[nH]cn2)C(=O)NCC(=O)N[C@@H](C)C(=O)N[C@@H]([C@@H](C)O)C(=O)N[C@@H](CC(C)C)C(=O)N[C@@H](CCC(=O)O)C(=O)N[C@@H](CCC(N)=O)C(=O)N[C@@H]([C@@H](C)O)C(=O)N[C@@H](Cc2ccc(O)cc2)C(=O)N[C@@H](C)C(=O)N[C@@H](CC(C)C)C(=O)N2CCC[C@H]2C(=O)N[C@@H](CC(C)C)C(=O)N[C@@H](C)C(=O)N1)[C@@H](C)O)C(=O)N[C@@H](CCC(=O)O)C(=O)N[C@@H](CCC(N)=O)C(=O)N[C@H](C(=O)N[C@@H](Cc1ccc(O)cc1)C(=O)O)[C@@H](C)O` [trMP, NH2-ACHGATLEQTYALPL ACHGATLEQTY-CO2H] (H-ACHGATLEQTYALPLACHGATLEQTY-OH; disulfide 2-17 (inferred)): the pIC50 at EC-EpoR-Fc (read-out: IC50 for blocking MP phage-peptide binding to immobilised EC-EpoR-Fc) was 5.00. The “effect on signal of phage displaying the EMP1 peptide” value on EC-EpoR-Fc (trMP concentration up to 1 mM) is recorded as “no reduction in signal”.

One may read the pKd as the negative decadic logarithm of the Kd, by convention in mol/L. Take (HKPRKE)4 [F6 peptide]: the pKd at ferritin was around 6.30.

These data come from patent US20040009507A1, “Concatenated nucleic acid sequence” (Domantis, Ltd., priority 2000, published 2004).
